Literature values as cited in article PMC11444200, “In Vitro Evaluation of Antipseudomonal Activity and Safety Profile of Peptidomimetic Furin Inhibitors” (Biomedicines, 2024).
Read-outs that look alike come from different tables or passages of the source.

Tests used:
[1] = test system: CYP3A4; settings: cited from earlier work
[2] = biological target: furin; settings: read-out: Ki (furin); cited from earlier work
[3] = test system: mice; settings: mice, cited from earlier work
[4] = test system: Mas-related G protein–coupled receptor X2 (MRGPRX2); set-up: method as in PMID 38385828; settings: compared to MI-1851 and MI-2415; cited from earlier work
[5] = set-up: method as in PMID 29059503; settings: cited from earlier work

## N=C(N)c1cccc(C[C@H](NS(=O)(=O)c2cccc(-c3ccc(Cl)cc3Cl)c2)C(=O)N2CCC(CCN)CC2)c1.O=C(O)C(F)(F)F.O=C(O)C(F)(F)F [MI-432]
[1]; compared with MI-1851 and MI-2415
  CYP3A4 inhibition: inhibit CYP3A4 already at considerably lower concentrations

## CC(C)(C)[C@H](NC(=O)[C@H](CCCN=C(N)N)NC(=O)Cc1ccc(CN=C(N)N)cc1)C(=O)N[C@@H](CCCN=C(N)N)C(=O)NCc1ccc(C(=N)N)cc1 [MI-1148, 4-guanidinomethyl-phenylacetyl-Arg-Tle-Arg-4-Amba, reference compound]
[2]
  Ki: 5.5 pM
[3]; 5 mg/kg i.p.
  mortality: all four mice died
[3]; i.p.
  maximum tolerated dose: 2.5 mg/kg
[4]
  activation of MRGPRX2: much stronger activation
[5]
  stability in human plasma: high stability

## COc1ccc(-c2cccc(S(=O)(=O)N[C@@H](Cc3cccc(C(=N)N)c3)C(=O)N3CCN(C(=O)NC4CCCCC4)CC3)c2)c(OC)c1 [MI-1900]
[1]
  CYP3A4 inhibition: inhibit CYP3A4 already at considerably lower concentrations
